Reference: US5284870A, “Aldose reductase inhibitor” (Shionogi Seiyaku Kabushiki Kaisha, priority 1992, dated 1994)
pIC50: −log10 of the molar value.

Target: T1, aldose reductase (Rattus norvegicus, UniProt P07943)
T1 construct: Lenses were removed from 20 eyeballs of rats and homogenized in 4 ml of 5 mM mercaptethanol; from tissue; host or cells: rat lens, 10,000 rpm supernatant of homogenate
Test: Aldose reductase-inhibiting activity (absorbance change at 340 nm, homogenate of rat lenses as enzyme source, glyceroaldehyde substrate, NADPH coenzyme)
Type: biochemical
Details: rat lens homogenate, 10 mM D,L-glyceroaldehyde, 0.4M Li2SO4, initial one minute
Procedure: The change in absorbance at 340 nm for initial one minute was measured, and the inhibiting activity was determined.
Lenses were removed from 20 eyeballs of rats and homogenized in 4 ml of 5 mM mercaptethanol using Glass-Teflon Homogenate. The obtained homogenate was centrifuged at 4° C. and 10,000 rpm for 20 minutes, and resulting supernatant was used as the enzyme source.

Compound	Ic50 (mass concentration) [ng/mL]	pIC50 (molar value in parentheses)	pIC50 (mass concentration)
O=C(O)CCC1(O)OC2=CC(=O)c3c(O)cc(O)cc3C2=C1c1ccccc1 (stereo not drawn) [RF-3192 B]	1.6	8.38	
O=C(O)CCC1(O)OC2=CC(=O)c3c(O)cc(O)cc3C2=C1c1ccc(O)cc1 (stereo not drawn) [RF-3192 A]		8.09	8.08
O=C1C=C2OC3(O)CC(=O)c4c(O)cc(O)cc4C3=C2c2cc(O)cc(O)c21 (stereo not drawn) [RF-3192 C]	130	6.47	
